From article PMC11120612, “In Vitro and In Vivo Evaluating Bioaccessibility, Bioavailability, and Antioxidant Activities of Butterfly Pea Flower Containing Bioactive Constitutes” (Foods, 2024)
Like-named read-outs stand apart in the source and are kept apart here. Values belong to the compound of their own block, whether it stands above or below them.

What was measured:
[1] = Identification of prototypes and metabolites in rat serum and urine by UPLC-LTQ-Orbitrap-MS2 after BF extracts; format: in vivo, SD rats; details: for Location: rat serum or urine after 500 mg/kg BW BF extracts, UPLC-LTQ-Orbitrap-MS2; for Detected in serum and/or urine: rat, after gavage of BF extracts
From the text: A total of 24 male SD rats aged between 6 and 8 weeks (200–220 g) were acquired from the Laboratory Animal Center of Jiangxi University of Chinese Medicine (Nanchang, China). […] During this period, they had free access to food and water. After adaptive feeding, rats were randomly divided into three groups (n = 8), including a negative control, serum collection, and urine collection groups. […] To establish baseline data, blood samples were collected from all rats before administering the BF extracts. […] Pretreatment of serum and urine samples was according to our previous study. The animal experiments were approved by the Animal Ethics Committee of Jiangxi University of Chinese Medicine (TEMPOR20230112).
The metabolic profile from blood and urine samples were conducted by UPLC-LTQ-Orbitrap-MS2 (Thermo Scientific, Bremen, Germany) according to previously published methods. The samples were prepared by SPE, centrifuged at 4 °C and 2000 rpm, and stored at −80 °C. […] The LTQ-Orbitrap-MS2 was operated in negative mode with a scan range of 50–2000 m/z. A data-dependent scan with CID was performed for fragmentation. The collision energy was set at 45 eV. Data acquisition and processing were performed with Xcalibur v.2.0 software (Thermo Fisher, San Jose, CA, USA) and Qualbrowser.

[2] = Serum pharmacokinetics in rats after consumption of 500 mg/kg BW of BF extracts; format: in vivo, SD rats; details: for Detection in rat plasma/blood after administration of BF extracts: 500 mg/kg BW BF extracts
Method: A total of 24 male SD rats aged between 6 and 8 weeks (200–220 g) were acquired from the Laboratory Animal Center of Jiangxi University of Chinese Medicine (Nanchang, China). Prior to experimentation, the rats were acclimated for 7 days in an air-conditioned room maintained at 24 ± 1 °C with a 12 h light/dark cycle. During this period, they had free access to food and water. After adaptive feeding, rats were randomly divided into three groups (n = 8), including a negative control, serum collection, and urine collection groups. […] To establish baseline data, blood samples were collected from all rats before administering the BF extracts. Blood was collected from the orbits at 15 min, 30 min, 1 h, 1.5 h, 2 h, 4 h, 6 h, 8 h, and 10 h after drug administration. Urine was collected at 6, 12, and 24 h after administration. Pretreatment of serum and urine samples was according to our previous study. The animal experiments were approved by the Animal Ethics Committee of Jiangxi University of Chinese Medicine (TEMPOR20230112).
The quantification of substances identified was performed using an AB TRIPLE QUAD 4500 HPLC-MS2 (AB SCIEX, Framingham, MA, USA) system equipped with a C18 column (2.1 × 100 mm, 1.7 μm particle size; ACQUITY) at room temperature (25 °C). The mobile phase consisted of A (water containing 0.2% formic acid, v/v) and B (acetonitrile containing 0.2% formic acid, v/v) and the following binary program was used: 0–3 min, 5% B; 3–4 min, 95% B; 4–4.1 min, 95–5% B; 4.1–6.0 min, 5% B. The flow rate was 0.3 mL/min, and the injection volume was 10 μL. For sensitive detection and quantification, the analysis employed electrospray ionization (ESI) followed by multiple reaction monitoring (MRM) to selectively monitor the fragmentation patterns of the target analytes. Data acquisition and processing were performed with Qualbrowser.
Blood concentration/time data analysis was performed by non-compartment model analysis and processed using Peak View®1.6 (AB SCIEX), according to a previous publication. All data are presented as mean ± standard deviation (SD). The maximum plasma concentration (Cmax), and the time to reach the maximum plasma concentration (tmax) was calculated from the observed values.

[3] = parameters: method as in PMID 16848510; details: cited from earlier work
[4] = rat serum, oral 500 mg/kg BW BF extracts, n = 8
[5] = male, SD, rat serum, oral 500 mg/kg BW BF extracts, n = 8

Location [1]: S, U
Compound: O=C(O)c1ccc(O[C@@H]2O[C@H](C(=O)O)[C@@H](O)[C@H](O)[C@H]2O)c(O)c1 [M13, PCA-4-glucuronide]

Location [1]: S
Compound: O=C(O)c1ccc(O)c(OC2OC(C(=O)O)C(O)C(O)C2O)c1 (stereo not shown) [M11, PCA-3-glucuronide]

Location [1]: S, U
Compound: Oc1cc(O)c2cc(O)c(-c3cc(O)c(O)c(O)c3)[o+]c2c1 [M16, delphinidin]

Location [1]: S
Compound: COc1cc(C(=O)O)ccc1O[C@@H]1O[C@H](C(=O)O)[C@@H](O)[C@H](O)[C@H]1O [M12, VA-4-glucuronide]

Second part, the compound before the results:

Compound: cyanidin-3-(p-coumaroyl) glucose
Location [1]: S
Detected in serum and/or urine [1]: serum

Compound: O=C([O-])CC(=O)OC[C@H]1O[C@@H](Oc2cc3c(O)cc(O)cc3[o+]c2-c2cc(O[C@@H]3O[C@H](COC(=O)/C=C/c4ccc(O[C@@H]5O[C@H](COC(=O)/C=C/c6ccc(O)cc6)[C@@H](O)[C@H](O)[C@H]5O)cc4)[C@@H](O)[C@H](O)[C@H]3O)c(O)c(O[C@@H]3O[C@H](COC(=O)/C=C/c4ccc(O[C@@H]5O[C@H](COC(=O)/C=C/c6ccc(O)cc6)[C@@H](O)[C@H](O)[C@H]5O)cc4)[C@@H](O)[C@H](O)[C@H]3O)c2)[C@H](O)[C@@H](O)[C@@H]1O [ternatin D1]
Detection in rat plasma/blood after administration of BF extracts [2]: not detected

Compound: OC[C@H]1O[C@@H](Oc2cc3c(O)cc(O)cc3[o+]c2-c2cc(O)c(O)c(O)c2)[C@H](O)[C@@H](O)[C@@H]1O [Delphinidin 3-glucoside, delphinidin 3-glucoside]
AUC0-10 ([2]; rat serum, oral 500 mg/kg BW BF extracts, 0 to 10 h, n = 8): 0.054654 ± 0.009089 µM·h
Cmax [2, 4]: 51.6 ± 3.2 nM
t1/2 [2, 4]: 1.639 ± 0.271 h
tmax [2, 4]: 0.5 h
Detection in rat plasma/blood after administration of BF extracts [2]: detected
Location [1]: S, U
Detected in serum and/or urine [1]: both serum and urine

Compound: delphinidin-3-p-coumaroyl-rutinoside-5-glucoside [nasunin]
Time of rapid peak in rat plasma (postprandial) [3]: 15 min

Compound: O=C(O)c1ccc(O)cc1 [4-Hydroxybenzoic acid, 4-hydroxybenzoic acid]
AUC(0-t) ([2]; male, SD, rat serum, oral 500 mg/kg BW BF extracts, 0 to 10 h, n = 8, read-out: AUC0-10): 0.0313 ± 0.00191 µM·h
Cmax [2, 5]: 6.98 ± 0.805 nM
half-life [2, 5]: 6.48 ± 5.16 h
tmax ([2]; male, SD, rat serum, oral 500 mg/kg BW BF extracts, n = 8, read-out: tmax): 1 h
Detection in rat plasma/blood after administration of BF extracts [2]: detected

Compound: C[C@@H]1O[C@@H](OC[C@H]2O[C@@H](Oc3c(-c4ccc(O)c(O)c4)oc4cc(O)cc(O)c4c3=O)[C@H](O)[C@@H](O)[C@@H]2O)[C@H](O)[C@H](O)[C@H]1O [rutin]
Detected in serum and/or urine [1]: exclusively in urine

Compound: benzoic acid-4-glucuronide [M19]
Location [1]: S, U
